One assay has as its target Human COX I (Homo sapiens, UniProt P23219). As to the kind of experiment: biochemical. Particulars: recombinant enzyme, CHAPS-solubilized insect cell membranes; arachidonic acid 10 μM; pre-incubation 10-20 minutes; pH 8.0; read-out: Human COX I ID50. Here is the method:
(§1) Recombinant baculoviruses were isolated by transfecting 4 μg of baculovirus transfer vector DNA into SF9 insect cells ([…]) along with 200 ng of linearized baculovirus plasmid DNA by the calcium phosphate method. See M. D. Summers and G. E. Smith, A Manual of Methods for Baculovirus Vectors and Insect Cell Culture Procedures, Texas Agric. Exp. Station Bull. […] Recombinant viruses were purified by three rounds of plaque purification and high titer (10E7-10E8 pfu/ml) stocks of virus were prepared. For large scale production, SF9 insect cells were infected in 10 liter fermentors (0.5×10^6 /ml) with the recombinant baculovirus stock such that the multiplicity of infection was 0.1. After 72 hours the cells were centrifuged and the cell pellet homogenized in Tris/Sucrose (50 mM: 25%, pH 8.0) containing 1% 3-[(3-cholamidopropyl)dimethylammonio]-1-propanesulfonate (CHAPS). The homogenate was centrifuged at 10,000×G for 30 minutes, and the resultant supernatant was stored at -80° C. before being assayed for COX activity.
COX activity was assayed as PGE2 formed/μg protein/time using an ELISA to detect the prostaglandin released. CHAPS-solubilized insect cell membranes containing the appropriate COX enzyme were incubated in a potassium phosphate buffer (50 mM, pH 8.0) containing epinephrine, phenol, and heme with the addition of arachidonic acid (10 μM). Compounds were pre-incubated with the enzyme for 10-20 minutes prior to the addition of arachidonic acid. […] The PGE2 formed was measured by standard ELISA technology (Cayman Chemical).

The target in another assay is T1, Human COX II (Homo sapiens, UniProt P35354).
T1 construct: A 2.0 kb fragment containing the coding region of either human or murine COX-I or human or murine COX-II was cloned; made in house; host or cells: SF9 insect cells infected with recombinant baculovirus (transfer vector pVL1393); CHAPS-solubilized preparation
T1 sequence (P35354 18-604): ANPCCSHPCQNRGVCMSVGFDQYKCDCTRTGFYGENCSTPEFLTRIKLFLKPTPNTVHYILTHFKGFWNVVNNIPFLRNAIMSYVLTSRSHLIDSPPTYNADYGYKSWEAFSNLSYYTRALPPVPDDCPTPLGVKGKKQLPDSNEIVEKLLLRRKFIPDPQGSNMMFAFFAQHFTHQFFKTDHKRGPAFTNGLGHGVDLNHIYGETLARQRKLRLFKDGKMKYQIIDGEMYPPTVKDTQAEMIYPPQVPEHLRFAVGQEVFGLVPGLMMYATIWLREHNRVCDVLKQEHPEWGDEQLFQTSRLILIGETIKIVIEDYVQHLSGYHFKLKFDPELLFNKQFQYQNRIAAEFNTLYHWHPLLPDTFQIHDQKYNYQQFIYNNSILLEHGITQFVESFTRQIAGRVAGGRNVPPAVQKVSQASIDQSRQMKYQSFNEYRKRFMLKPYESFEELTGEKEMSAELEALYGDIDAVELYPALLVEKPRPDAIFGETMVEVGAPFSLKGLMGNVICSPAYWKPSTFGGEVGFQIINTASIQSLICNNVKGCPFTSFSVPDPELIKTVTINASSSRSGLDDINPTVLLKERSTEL
As to the kind of experiment: COX II activity in vitro (PGE2 formed, ELISA). It counts as biochemical. As to conditions: recombinant enzyme, CHAPS-solubilized insect cell membranes; arachidonic acid 10 μM; pre-incubation 10-20 minutes; pH 8.0; read-out: Human COX II ID50. Here is the method: as §1
COX activity was assayed as PGE2 formed/μg protein/time using an ELISA to detect the prostaglandin released. […] The PGE2 formed was measured by standard ELISA technology (Cayman Chemical).
For orientation: ELISA stands for enzyme-linked immunosorbent assay.

Each structure is given as a SMILES string.

Chain of Human COX I (P23219 24-599): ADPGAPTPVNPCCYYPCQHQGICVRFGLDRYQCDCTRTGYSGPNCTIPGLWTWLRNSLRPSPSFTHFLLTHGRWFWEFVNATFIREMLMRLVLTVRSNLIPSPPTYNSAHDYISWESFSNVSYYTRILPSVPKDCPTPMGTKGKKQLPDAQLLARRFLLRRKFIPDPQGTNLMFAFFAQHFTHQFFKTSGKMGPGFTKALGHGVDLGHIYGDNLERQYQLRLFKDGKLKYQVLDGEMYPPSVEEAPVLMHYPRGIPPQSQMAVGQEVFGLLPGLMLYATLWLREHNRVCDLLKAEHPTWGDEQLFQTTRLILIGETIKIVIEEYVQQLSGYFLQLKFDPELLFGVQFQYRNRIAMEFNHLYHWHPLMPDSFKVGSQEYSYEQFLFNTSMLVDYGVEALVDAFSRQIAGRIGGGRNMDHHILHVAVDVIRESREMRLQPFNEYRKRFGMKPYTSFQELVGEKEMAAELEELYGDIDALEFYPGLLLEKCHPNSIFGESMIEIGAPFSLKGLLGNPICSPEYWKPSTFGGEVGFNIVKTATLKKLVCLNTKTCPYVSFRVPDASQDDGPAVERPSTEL

With `Cc1ccc(-c2cc(-c3ccc(Cl)cc3)n(-c3ccc(S(N)(=O)=O)cc3)n2)cc1` [Example 2d, 4-(5-(4-chlorophenyl)-3-(4-methylphenyl)-1H-pyrazol-1-yl)benzenesulfonamide], the IC50 at Human COX I was found to be 12.7 µM.
On to `NS(=O)(=O)c1ccc(-n2nc(-c3ccccc3)cc2-c2ccc(Cl)cc2)cc1` [Example 2b, 4-(5-(4-chlorophenyl)-3-phenyl-1H-pyrazol-1-yl)benzenesulfonamide], for which the IC50 at Human COX I turned out to be 19.1 µM.
As to `COc1ccc(-c2cc(-c3ccc(OC)cc3)n(-c3ccc(S(N)(=O)=O)cc3)n2)cc1` [Example 2c, 4-(3,5-bis(4-methoxyphenyl)-1H-pyrazol-1-yl)benzenesulfonamide], the IC50 at Human COX II is 0.5 µM; on Human COX I it was 2.1 µM.
`NS(=O)(=O)c1ccc(-n2nc(-c3ccc([N+](=O)[O-])cc3)cc2-c2ccc(Cl)cc2)cc1` [Example 2e, 4-(5-(4-chlorophenyl)-3-(4-nitrophenyl)-1H-pyrazol-1-yl)benzenesulfonamide]: the IC50 on Human COX II is 0.7 µM; on Human COX I it was more than 100 µM.
`Cc1ccc(-c2cc(-c3ccc(C)cc3)n(-c3ccc(S(N)(=O)=O)cc3)n2)cc1` [Example 2a, 4-(3,5-bis(4-methylphenyl)-1H-pyrazol-1-yl)benzenesulfonamide]: the IC50 on Human COX I was determined as 13.6 µM.

(Values after patent publication US5908852A, “1,3,5 trisubstituted pyrazole compounds for treatment of inflammation” (G. D. Searle & Co., priority 1996, dated 1999).)
